How the values were obtained:
Type in all cases: in vivo
[1] = test system: TSH (thyroid stimulating hormone) release; experiment: TSH-releasing activity (method of Schally et al.); conditions: ratio of effect to that of the same dose of TRH (TRH = 1); rats
Description: (1) TSH-releasing activity
Using rats, a test was performed in accordance with the method of Schally et al. [J. Biol. Chem. 244, 4077, (1969)].
(§1) The relative effects of compound (I) by the above 4 procedures were expressed in terms of the ratios of effect of the same dose of compound (I) as that of TRH with the effects of TRH being taken as unity.

[2] = test system: mice (ICR/JCL, male, 4 weeks old); experiment: Anaesthesia antagonism (pentobarbital sodium, recovery of righting reflex); conditions: ratio of effect to that of the same dose of TRH (TRH = 1), 55 mg/kg pentobarbital sodium i.p., compound i.v. after 10 minutes
[3] = test system: mice (ICR/JCL, male, 4 weeks old); experiment: Activity-increasing action (spontaneous activity in activity wheel); conditions: ratio of effect to that of the same dose of TRH (TRH = 1), cumulative wheel rotations during 3 hours after i.v. administration
Description: (3) Activity-increasing action
Using groups of 10 mice (ICR/JCL, male, 4 weeks old), each mouse was placed in an activity wheel and the activity-increasing action of the medication on the mouse was observed. The cumulative number of rotations caused by the spontaneous activity of the mice during a period of 3 hours following the intravenous administration of compound (I) was compared with the number of revolutions for the control group.
as §1

[4] = test system: male mice (ICR/JCL) with one caudate nucleus destroyed; experiment: Dopamine activity-potentiating effect (apomorphine-induced turning, caudate nucleus destroyed, reserpine premedication); conditions: ratio of effect to that of the same dose of TRH (TRH = 1), compound given 30 minutes before 0.25 mg/kg apomorphine i.p., reserpine 2 mg/kg i.p. premedication
Description: (4) Dopamine activity-potentiating effect
Using groups of 10 male mice (ICR/JCL) with one of its caudate nuclei destroyed by suction the effects of compound (I) upon the number of turns and the percent incidence of head turning as caused by 0.25 mg/kg of apomorphine (I.P.), i.e., a dopamine-receptor stimulant, under the influence of premedication (18-22 hours) with 2 mg/kg of reserpine (i.p.) were examined.
Thus, compound (I) was given 30 minutes before the administration of apomorphine and the result was compared with that for the untreated (control group). This test was performed to ascertain the potentiating effect of the compound upon the central nervous system action of dopamine, the principle of the test being the same as that of the experiment performed by Everett et al. [Fed. Proc. 23, 198, (1964)] for testing the DOPA synergistic effect which involved the administration of Dl-DOPA.
as §1

Compound | TSH-releasing effect [1] | Anaesthesia antagonism [2] | Spontaneous activity-increasing effect [3] | Dopamine-potentiating effect [4]
NC(=O)[C@@H]1CCCN1C(=O)[C@H](Cc1c[nH]cn1)NC(=O)[C@@H]1CCC(=O)N1 [TRH, L-pyroglutamyl-L-histidyl-L-prolinamide] | 1 | 1 | 1 | 1
Oct.His.Pip.NH2 [Oct-His-Pip-NH2] | 0.5 | 1.57 | 5 | 4.00
